Tests used:
JAK1 = target: T1, JAK1 (Homo sapiens, UniProt P23458); assay: Biochemical JAK1 kinase assay (LanthaScreen); conditions: for Ki: read-out: JAK 1 (pKi) (converted)
T1 construct: GST; purchased Life Technologies
Outline: (§1)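 TR-FRET read-out: terbium anti-pSTAT1 (pTyr701) antibody, 2 nM, with 10 mM EDTA quench, emission ratio 520/495 nm. GST-JAK phosphorylates GFP-STAT1 peptide for 1 h at ambient temperature after 1 h compound pre-incubation. pIC50 from dose-response converted to pKi by Cheng-Prusoff.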

JAK2 = target: T2, JAK2 (Homo sapiens, UniProt O60674); assay: Biochemical JAK2 kinase assay (LanthaScreen); conditions: for Ki: read-out: JAK 2 (pKi) (converted)
T2 construct: GST; purchased Life Technologies
Outline: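 pKi values derive from pIC50 via Cheng-Prusoff, with IC50 from a 4-parameter fit of percent-inhibition TR-FRET data using Tb-anti-pSTAT1 (pTyr701) detection. Compound, GST-JAK2 and GFP-STAT1 substrate were pre-incubated 1 h, then ATP started a 1 h ambient reaction (HEPES pH 7.5, 10 mM MgCl2, 1% DMSO).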

Tyk2 = target: T3, Tyk2 (Homo sapiens, UniProt P29597); assay: Biochemical Tyk2 kinase assay (LanthaScreen); conditions: for Ki: read-out: Tyk 2 (pKi) (converted)
T3 construct: GST; purchased Life Technologies
Outline: as §1

[1] = tested on: IL-2 stimulated pSTAT5 in Tall-1 T cells; assay: Cellular JAK3 potency assay: inhibition of IL-2 stimulated pSTAT5 in Tall-1 T cells; type: cell-based, human; conditions: for Tall-1 (pIC50): IL-2 stimulated pSTAT5 in Tall-1 T cells; for IC50: Homo sapiens, TALL-1, IL-2 stimulated pSTAT5 in Tall-1 T cells, read-out: Tall-1 (pIC50) (converted)
Outline: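 Tall-1 human T cells were preincubated with compound for 1 h at 37° C, then stimulated with IL-2 (300 ng/ml final) for 30 min. STAT5 phosphorylation in lysates was read by AlphaLisa bead emission, and IC50 from inhibition curves is given as pIC50 (mean±SD).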

JAK3 = target: T4, JAK3 (Homo sapiens, UniProt P52333); assay: Biochemical JAK3 kinase assay (LanthaScreen); parameters: GST; purchased Life Technologies; conditions: for JAK3 (pKi)-JAK1 (pKi): selectivity: difference of pKi JAK3 and pKi JAK1; for Ki: read-out: JAK 3 (pKi) (converted)
T4 sequence (P52333 1-1124): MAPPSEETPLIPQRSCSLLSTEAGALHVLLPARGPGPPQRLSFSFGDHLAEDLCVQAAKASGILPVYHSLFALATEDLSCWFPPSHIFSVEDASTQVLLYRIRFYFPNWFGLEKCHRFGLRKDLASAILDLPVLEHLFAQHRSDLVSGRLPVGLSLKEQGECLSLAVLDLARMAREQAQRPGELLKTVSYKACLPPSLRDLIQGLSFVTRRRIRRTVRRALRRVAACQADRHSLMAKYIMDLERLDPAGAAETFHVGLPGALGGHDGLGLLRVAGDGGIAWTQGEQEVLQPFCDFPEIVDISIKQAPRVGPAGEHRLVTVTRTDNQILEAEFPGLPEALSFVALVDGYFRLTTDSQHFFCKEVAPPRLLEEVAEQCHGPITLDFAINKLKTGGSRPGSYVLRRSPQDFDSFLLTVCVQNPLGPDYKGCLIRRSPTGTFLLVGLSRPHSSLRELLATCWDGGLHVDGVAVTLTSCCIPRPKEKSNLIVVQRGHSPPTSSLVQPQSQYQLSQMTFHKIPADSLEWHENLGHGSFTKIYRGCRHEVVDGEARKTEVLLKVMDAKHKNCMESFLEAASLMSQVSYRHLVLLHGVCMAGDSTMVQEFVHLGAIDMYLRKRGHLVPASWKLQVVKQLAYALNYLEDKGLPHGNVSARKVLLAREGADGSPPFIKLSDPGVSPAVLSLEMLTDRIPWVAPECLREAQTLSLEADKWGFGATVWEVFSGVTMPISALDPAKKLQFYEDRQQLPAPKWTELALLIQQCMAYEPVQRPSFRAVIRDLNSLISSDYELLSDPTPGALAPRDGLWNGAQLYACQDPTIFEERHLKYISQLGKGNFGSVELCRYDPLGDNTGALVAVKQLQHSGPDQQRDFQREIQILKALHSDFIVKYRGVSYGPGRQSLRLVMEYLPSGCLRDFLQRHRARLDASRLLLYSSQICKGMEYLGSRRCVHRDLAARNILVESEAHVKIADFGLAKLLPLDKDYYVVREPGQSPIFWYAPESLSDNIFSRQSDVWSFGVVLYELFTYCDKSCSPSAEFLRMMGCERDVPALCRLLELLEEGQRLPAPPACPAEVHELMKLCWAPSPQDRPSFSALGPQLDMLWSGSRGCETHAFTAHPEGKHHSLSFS
Outline: as §1

T3 sequence (P29597 whole entry): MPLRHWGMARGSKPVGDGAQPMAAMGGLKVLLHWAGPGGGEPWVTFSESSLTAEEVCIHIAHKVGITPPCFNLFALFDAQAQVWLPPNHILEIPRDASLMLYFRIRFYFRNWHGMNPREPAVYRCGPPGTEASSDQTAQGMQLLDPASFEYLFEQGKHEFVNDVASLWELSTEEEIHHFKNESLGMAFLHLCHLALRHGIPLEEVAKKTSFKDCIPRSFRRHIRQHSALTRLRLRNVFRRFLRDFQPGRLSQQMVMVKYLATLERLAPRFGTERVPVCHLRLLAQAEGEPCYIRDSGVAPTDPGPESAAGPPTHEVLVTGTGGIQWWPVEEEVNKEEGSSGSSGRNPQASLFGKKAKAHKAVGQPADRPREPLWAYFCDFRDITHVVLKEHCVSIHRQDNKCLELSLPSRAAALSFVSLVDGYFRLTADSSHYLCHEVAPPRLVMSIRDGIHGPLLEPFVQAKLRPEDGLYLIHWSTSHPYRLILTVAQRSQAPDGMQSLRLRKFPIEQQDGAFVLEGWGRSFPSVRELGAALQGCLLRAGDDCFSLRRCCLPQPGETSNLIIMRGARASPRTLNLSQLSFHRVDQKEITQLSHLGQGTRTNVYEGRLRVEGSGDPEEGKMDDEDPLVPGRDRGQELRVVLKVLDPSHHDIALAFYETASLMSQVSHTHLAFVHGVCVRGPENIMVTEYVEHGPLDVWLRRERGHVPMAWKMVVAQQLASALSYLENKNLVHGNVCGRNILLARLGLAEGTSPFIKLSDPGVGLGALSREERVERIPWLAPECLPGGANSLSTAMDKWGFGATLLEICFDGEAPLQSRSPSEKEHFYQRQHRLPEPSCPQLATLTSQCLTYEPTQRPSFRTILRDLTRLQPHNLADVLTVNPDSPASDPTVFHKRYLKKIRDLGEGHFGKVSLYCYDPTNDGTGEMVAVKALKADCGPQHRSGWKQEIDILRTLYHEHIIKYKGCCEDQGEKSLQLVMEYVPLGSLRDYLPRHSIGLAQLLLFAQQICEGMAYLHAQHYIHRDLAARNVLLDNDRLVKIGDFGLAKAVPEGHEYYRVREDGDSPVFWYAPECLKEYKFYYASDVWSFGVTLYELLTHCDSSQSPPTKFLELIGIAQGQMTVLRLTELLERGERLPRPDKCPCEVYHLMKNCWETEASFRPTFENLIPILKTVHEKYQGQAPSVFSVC
T2 sequence (O60674 whole entry): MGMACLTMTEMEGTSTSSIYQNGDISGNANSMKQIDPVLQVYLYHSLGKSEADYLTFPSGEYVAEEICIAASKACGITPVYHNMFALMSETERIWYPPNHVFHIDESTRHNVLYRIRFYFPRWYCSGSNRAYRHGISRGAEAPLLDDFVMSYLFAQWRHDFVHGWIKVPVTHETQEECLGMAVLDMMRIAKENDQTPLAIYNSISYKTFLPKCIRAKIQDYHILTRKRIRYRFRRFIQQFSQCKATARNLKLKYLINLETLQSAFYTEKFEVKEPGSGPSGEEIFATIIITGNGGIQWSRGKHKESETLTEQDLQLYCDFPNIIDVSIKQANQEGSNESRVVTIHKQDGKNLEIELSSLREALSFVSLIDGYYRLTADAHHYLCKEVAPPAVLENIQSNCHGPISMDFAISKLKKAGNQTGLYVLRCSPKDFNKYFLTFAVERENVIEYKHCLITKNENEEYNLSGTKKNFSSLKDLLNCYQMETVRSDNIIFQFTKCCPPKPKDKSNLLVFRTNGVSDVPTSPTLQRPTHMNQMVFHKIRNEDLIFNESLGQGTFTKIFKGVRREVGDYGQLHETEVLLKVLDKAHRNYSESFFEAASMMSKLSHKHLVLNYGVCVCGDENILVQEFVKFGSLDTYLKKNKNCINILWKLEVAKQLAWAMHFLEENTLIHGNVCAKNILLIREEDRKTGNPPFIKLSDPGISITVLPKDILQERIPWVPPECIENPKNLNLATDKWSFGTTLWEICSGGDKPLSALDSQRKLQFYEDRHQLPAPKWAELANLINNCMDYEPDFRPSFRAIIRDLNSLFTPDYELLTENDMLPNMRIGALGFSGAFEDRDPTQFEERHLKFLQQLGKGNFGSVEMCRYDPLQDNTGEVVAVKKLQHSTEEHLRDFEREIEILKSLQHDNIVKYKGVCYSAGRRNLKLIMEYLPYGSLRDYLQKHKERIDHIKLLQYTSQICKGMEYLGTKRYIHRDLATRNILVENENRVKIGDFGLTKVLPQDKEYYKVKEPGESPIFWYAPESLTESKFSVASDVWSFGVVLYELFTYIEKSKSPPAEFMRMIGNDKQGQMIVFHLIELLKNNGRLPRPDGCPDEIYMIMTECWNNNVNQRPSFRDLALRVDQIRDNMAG
T1 sequence (P23458 whole entry): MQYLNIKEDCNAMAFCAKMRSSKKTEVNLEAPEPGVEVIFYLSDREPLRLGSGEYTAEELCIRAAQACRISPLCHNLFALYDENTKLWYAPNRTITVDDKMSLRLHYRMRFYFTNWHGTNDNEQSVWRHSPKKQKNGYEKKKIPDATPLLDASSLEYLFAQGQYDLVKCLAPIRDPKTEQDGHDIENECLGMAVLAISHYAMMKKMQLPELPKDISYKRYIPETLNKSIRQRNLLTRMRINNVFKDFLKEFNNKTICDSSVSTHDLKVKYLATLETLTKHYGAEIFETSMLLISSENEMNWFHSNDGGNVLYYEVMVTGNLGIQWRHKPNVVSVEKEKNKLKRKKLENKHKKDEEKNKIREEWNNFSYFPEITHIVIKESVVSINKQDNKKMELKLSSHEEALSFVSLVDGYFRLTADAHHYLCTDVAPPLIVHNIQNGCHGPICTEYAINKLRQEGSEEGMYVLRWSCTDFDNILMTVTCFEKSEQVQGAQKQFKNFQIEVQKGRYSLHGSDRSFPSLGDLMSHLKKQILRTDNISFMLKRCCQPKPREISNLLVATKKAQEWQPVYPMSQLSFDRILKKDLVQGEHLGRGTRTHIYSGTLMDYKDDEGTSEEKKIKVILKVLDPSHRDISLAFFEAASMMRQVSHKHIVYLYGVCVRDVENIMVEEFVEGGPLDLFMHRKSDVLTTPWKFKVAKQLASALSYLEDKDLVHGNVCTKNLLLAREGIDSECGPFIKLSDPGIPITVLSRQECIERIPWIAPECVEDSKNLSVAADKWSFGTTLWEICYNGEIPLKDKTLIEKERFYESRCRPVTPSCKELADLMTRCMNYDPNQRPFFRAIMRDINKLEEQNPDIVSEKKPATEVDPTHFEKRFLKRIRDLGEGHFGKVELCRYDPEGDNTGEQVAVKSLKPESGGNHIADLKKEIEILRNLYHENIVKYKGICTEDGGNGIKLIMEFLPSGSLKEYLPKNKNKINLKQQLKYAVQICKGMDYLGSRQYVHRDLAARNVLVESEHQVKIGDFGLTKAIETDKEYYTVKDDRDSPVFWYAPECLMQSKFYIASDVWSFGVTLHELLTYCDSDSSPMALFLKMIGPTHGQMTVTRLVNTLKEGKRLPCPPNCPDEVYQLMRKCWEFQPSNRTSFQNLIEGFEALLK

Compound	JAK 1 (pKi) (JAK1)	JAK 2 (pKi) (JAK2)	Tyk 2 (pKi) (Tyk2)	Tall-1 (pIC50) [1]	JAK 3 (pKi) (JAK3)	JAK3 (pKi)-JAK1 (pKi) (JAK3)	Ki (JAK1) [nM]	Ki (JAK2) [nM]	Ki (Tyk2) [nM]	IC50 [1] [nM]	Ki (JAK3) [nM]
C=CC(=O)N1CC(CC)(COc2cc(-c3ccc(O)c(Cl)c3)nc3[nH]ncc23)C1 [Compound 3-69]	E (a pKi value of 7 or below (Ki of 100 nM or above))	E (a pKi value of 7 or below (Ki of 100 nM or above))	E (a pKi value of 7 or below (Ki of 100 nM or above))	B (a pIC50 value between 6.7 (included) and 7.5 (IC50 between 200 nM and 32 nM))	A (a pKi value≥10 (Ki≤0.1 nM))	A (a value of 3 or above)					
C=CC(=O)N1CC(CC)(COc2cc(-c3ccc(O)c(F)c3)nc3[nH]ncc23)C1 [Compound 3-70]	E (a pKi value of 7 or below (Ki of 100 nM or above))	E (a pKi value of 7 or below (Ki of 100 nM or above))	E (a pKi value of 7 or below (Ki of 100 nM or above))	B (a pIC50 value between 6.7 (included) and 7.5 (IC50 between 200 nM and 32 nM))	A (a pKi value≥10 (Ki≤0.1 nM))	A (a value of 3 or above)					
CN(C)C/C=C/C(=O)N1CC(C#N)(COc2nc(-c3ccc(O)c(Cl)c3)cc3[nH]ncc23)C1 [Compound 3-71]	E (a pKi value of 7 or below (Ki of 100 nM or above))	E (a pKi value of 7 or below (Ki of 100 nM or above))	E (a pKi value of 7 or below (Ki of 100 nM or above))	A (a pIC50 value≥7.5 (IC50≤32 nM))	A (a pKi value≥10 (Ki≤0.1 nM))	A (a value of 3 or above)					
C=CC(=O)N1CC(COc2cc(-c3ccc(O)c(Cl)c3)cc3[nH]ncc23)(OC)C1 [Compound 3-73]	E (a pKi value of 7 or below (Ki of 100 nM or above))	E (a pKi value of 7 or below (Ki of 100 nM or above))	E (a pKi value of 7 or below (Ki of 100 nM or above))	A (a pIC50 value≥7.5 (IC50≤32 nM))	A (a pKi value≥10 (Ki≤0.1 nM))	A (a value of 3 or above)					
C=CC(=O)N1CC(COc2cc(-c3ccc(O)c(F)c3)cc3[nH]ncc23)(OC)C1 [Compound 3-75]	E (a pKi value of 7 or below (Ki of 100 nM or above))	E (a pKi value of 7 or below (Ki of 100 nM or above))	E (a pKi value of 7 or below (Ki of 100 nM or above))	A (a pIC50 value≥7.5 (IC50≤32 nM))	B (a pKi value between 9 and 10 (Ki between 1 nM and 0.1 nM))	A (a value of 3 or above)					
C=CC(=O)N1CC(C(C)Oc2nc(-c3ccc(O)cc3)nc3[nH]ncc23)C1 (stereo not drawn) [Compound 3-77]						A (a value of 3 or above)	> 100	> 100	> 100	31.6 to 200	< 0.1
C=C(CN(C)C)C(=O)N1CC(COc2cc(-c3ccc(O)cc3)nc3[nH]ncc23)C1 [Compound 3-79]						A (a value of 3 or above)	> 100	> 100	> 100	31.6 to 200	0.1 to 1
C=CC(=O)N1CC(COc2cc(-c3ccc(O)c(OC)c3)cc3[nH]ncc23)C1 [Compound 3-83]						A (a value of 3 or above)	> 100	> 100	> 100	< 31.6	< 0.1
CN1CCC[C@@H]1/C=C/C(=O)N1CC(COc2cc(-c3ccc(O)cc3)cc3[nH]ncc23)C1 [Compound 3-85]						A (a value of 3 or above)	> 100	10 to 100	> 100	< 31.6	< 0.1
C=CC(=O)N1CC(COc2cc(-c3ccc(O)c(Cl)c3)nc3[nH]ncc23)C1 [Compound 3-86]						A (a value of 3 or above)	> 100	> 100	> 100	31.6 to 200	< 0.1
C=CC(=O)N1CC(COc2cc(-c3ccc(O)c(F)c3)nc3[nH]ncc23)C1 [Compound 3-87]						A (a value of 3 or above)	> 100	> 100	> 100	31.6 to 200	0.1 to 1
CN(C)C/C=C/C(=O)N1CC(F)(COc2nc(-c3ccc(O)cc3)nc3[nH]ncc23)C1 [Compound 3-88]						A (a value of 3 or above)	> 100	> 100	> 100	31.6 to 200	0.1 to 1
CN(C)C/C=C/C(=O)N1CC(F)(COc2cc(-c3ccc(O)cc3)nc3[nH]ncc23)C1 [Compound 3-89]						A (a value of 3 or above)	> 100	> 100	> 100	31.6 to 200	< 0.1
CN(C)C/C=C/C(=O)N1CC(F)(COc2nc(-c3ccc(O)c(Cl)c3)cc3[nH]ncc23)C1 [Compound 3-91]						A (a value of 3 or above)	10 to 100	10 to 100	> 100	< 31.6	< 0.1
C=CC(=O)N1CC(F)(COc2nc(-c3ccc(O)c(Cl)c3)nc3[nH]ncc23)C1 [Compound 3-92]						A (a value of 3 or above)	> 100	> 100	> 100	< 31.6	< 0.1
C=CC(=O)N1CC(F)(COc2nc(-c3ccc(O)c(F)c3)nc3[nH]ncc23)C1 [Compound 3-93]						A (a value of 3 or above)	> 100	> 100	> 100	< 31.6	< 0.1
C=CC(=O)N1CC(F)(COc2cc(-c3ccc(O)c(Cl)c3)nc3[nH]ncc23)C1 [Compound 3-94]	E (a pKi value of 7 or below (Ki of 100 nM or above))	E (a pKi value of 7 or below (Ki of 100 nM or above))	E (a pKi value of 7 or below (Ki of 100 nM or above))	A (a pIC50 value≥7.5 (IC50≤32 nM))	A (a pKi value≥10 (Ki≤0.1 nM))	A (a value of 3 or above)					
CN(C)C/C=C/C(=O)N1CC(C)(COc2nc(-c3ccc(O)c(Cl)c3)cc3[nH]ncc23)C1 [Compound 3-95]	E (a pKi value of 7 or below (Ki of 100 nM or above))	E (a pKi value of 7 or below (Ki of 100 nM or above))	E (a pKi value of 7 or below (Ki of 100 nM or above))	A (a pIC50 value≥7.5 (IC50≤32 nM))	A (a pKi value≥10 (Ki≤0.1 nM))	A (a value of 3 or above)					
CN(C)C/C=C/C(=O)N1CC(C)(COc2nc(-c3ccc(O)c(F)c3)cc3[nH]ncc23)C1 [Compound 3-96]	E (a pKi value of 7 or below (Ki of 100 nM or above))	E (a pKi value of 7 or below (Ki of 100 nM or above))	E (a pKi value of 7 or below (Ki of 100 nM or above))	B (a pIC50 value between 6.7 (included) and 7.5 (IC50 between 200 nM and 32 nM))	B (a pKi value between 9 and 10 (Ki between 1 nM and 0.1 nM))	A (a value of 3 or above)					

From patent US10392368B2, “Pyrazolo and triazolo bicyclic compounds as JAK kinase inhibitors” (THERAVANCE BIOPHARMA R&D IP, LLC, priority 2017, dated 2019)
